The text below walks through data of publication PMC4275348 (Molecular microbiology, 2014).

The target in assay [1] is T1, LuxN (Vibrio campbellii, UniProt A7MRY4). Type of assay: cell-based, Vibrio harveyi. Conditions: for effect on light production (antagonist activity) / reduction in light production: 1 μM AHL with 20 nM AI-1, V. harveyi TL25; for mechanism of antagonism: IC50 values measured at various concentrations of AI-1.
Assay [2] has as its target T1, LuxN. Conditions: 1 μM AHL; V. harveyi TL25.
For assay [3], the target named is luxN^L166A/H210N (Vibrio campbellii, UniProt A7MRY4, H210N/L166A). Conditions: AHLs added at 1 μM.
Assay [4] concerns the target LuxN^L166A (Vibrio campbellii, UniProt A7MRY4, L166A).
For assay [5], the target named is T2, LuxN^H210N (Vibrio campbellii, UniProt A7MRY4, H210N).
T2 sequence (A7MRY4 1-849 H210N): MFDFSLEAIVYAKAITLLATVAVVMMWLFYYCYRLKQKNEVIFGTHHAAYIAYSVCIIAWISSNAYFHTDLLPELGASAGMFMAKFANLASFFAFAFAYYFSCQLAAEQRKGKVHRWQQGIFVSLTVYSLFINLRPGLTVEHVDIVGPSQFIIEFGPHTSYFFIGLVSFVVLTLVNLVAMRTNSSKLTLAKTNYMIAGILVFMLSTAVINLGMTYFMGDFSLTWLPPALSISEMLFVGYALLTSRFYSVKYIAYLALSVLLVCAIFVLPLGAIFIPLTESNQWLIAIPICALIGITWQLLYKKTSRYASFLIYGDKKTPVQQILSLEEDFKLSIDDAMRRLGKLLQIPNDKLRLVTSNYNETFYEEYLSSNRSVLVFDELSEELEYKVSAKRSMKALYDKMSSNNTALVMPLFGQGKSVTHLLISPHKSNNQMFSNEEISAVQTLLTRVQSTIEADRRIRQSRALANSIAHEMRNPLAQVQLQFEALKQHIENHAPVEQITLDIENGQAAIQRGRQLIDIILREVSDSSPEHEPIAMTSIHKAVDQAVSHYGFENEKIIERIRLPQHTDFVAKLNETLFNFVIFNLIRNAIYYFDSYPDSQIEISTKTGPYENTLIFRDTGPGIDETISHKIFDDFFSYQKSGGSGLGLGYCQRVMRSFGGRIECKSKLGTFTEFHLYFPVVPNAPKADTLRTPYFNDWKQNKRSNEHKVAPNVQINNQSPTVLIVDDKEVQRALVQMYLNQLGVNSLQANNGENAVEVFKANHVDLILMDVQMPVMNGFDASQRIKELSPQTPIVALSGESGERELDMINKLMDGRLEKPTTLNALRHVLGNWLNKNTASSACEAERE
Description: Bioluminescence of V. harveyi XK006 carrying luxN H210N. Type of assay: cell-based, Vibrio harveyi. The conditions noted are these: AHLs supplied at 10 μM.

Assay [6] has as its target T3, LuxN^G147D/Y194H (Vibrio campbellii, UniProt A7MRY4, G147D/Y194H).
T3 sequence (A7MRY4 1-849 G147D/Y194H): T2 sequence (A7MRY4 1-849 H210N) with G147D, Y194H, N210H
The experiment in a line: Bioluminescence of V. harveyi XK006 carrying luxN G147D/Y194H. Type of assay: cell-based, Vibrio harveyi.

Assay [7] has as its target T4, luxN^T159I/Y193K (Vibrio campbellii, UniProt A7MRY4, N193K/T159I).
T4 sequence (A7MRY4 1-849 T159I/N193K): T2 sequence (A7MRY4 1-849 H210N) with T159I, N193K, N210H
The experiment in a line: Bioluminescence of V. harveyi XK006 carrying luxN T159I/Y193K. Type of assay: cell-based, Vibrio harveyi.

In assay [8] the target is T5, luxN^S184I/S230P (Vibrio campbellii, UniProt A7MRY4, S184I/S230P).
T5 sequence (A7MRY4 1-849 S184I/S230P): T2 sequence (A7MRY4 1-849 H210N) with S184I, N210H, S230P
The experiment in a line: Bioluminescence of V. harveyi XK006 carrying luxN S184I/S230P. Type of assay: cell-based, Vibrio harveyi.

Where a chain is given by its changes, count along the chain named.

`CC(=O)CC(=O)NC1CCOC1=O` (stereo not drawn) [3O-C4 HSL]: the “effect on light production (antagonist activity)” value in assay [1] is given as “did not decrease light production”. In assay [2], the “induction of light production” value is “did not induce light production”. Regarding `CCCC(=O)CC(=O)NC1CCOC1=O` (stereo not drawn) [3O-C6 HSL], in assay [3], the light production result is reported as “detected”.

For the compound `CCCCCC(=O)CC(=O)NC1CCOC1=O` (stereo not drawn) [3O-C8 HSL], the light production entry in assay [3] is “produced maximal light”. In addition, the “detection (light production)” value in assay [4] is recorded as “only modest detection”. For the compound `CCCC(O)CC(=O)N[C@H]1CCOC1=O` (stereo partly drawn) [3OH-C6 HSL], the “effect on light production (antagonist activity)” value in assay [1] is listed as “little effect on light production”.

Take `CCCCCCCC(O)CC(=O)N[C@H]1CCOC1=O` (stereo partly drawn) [3OH-C10 HSL]: the “reduction in light production” value in assay [1] is 30 fold.

Turning to `CCCCCCCCCC(O)CC(=O)N[C@H]1CCOC1=O` (stereo partly drawn) [3OH-C12 HSL], the “reduction in light production” value in assay [1] is given as 100 fold. In the case of `CCCCCC(=O)N[C@H]1CCOC1=O` [C6 HSL], in assay [3], the light production result was “detected”. In addition, in assay [5], the “induction of light production” value was “activated modest light production”.

Turning to `CCCCCCCCCC(=O)N[C@H]1CCOC1=O` [C10 HSL], the mechanism of antagonism result in assay [1] is reported as “behaved similarly to 3O-C12 HSL”. Take `CCCCCCCCCCCC(=O)N[C@H]1CCOC1=O` [C12 HSL]: the “response (dose-dependent light production)” value in assay [6], in assay [7] and in assay [8] was “none responded” each time. For phenoxy-thiolactone [PTL], the mechanism of antagonism entry in assay [1] is given as “behaved similarly to 3O-C12 HSL”.
